Assay results reported in patent US12466822B2, “Heterocyclic compounds as immunomodulators” (Incyte Corporation, priority 2016, dated 2025).

Biological target: T1, PD-1/PD-L1 protein/protein interaction (recombinant human PD-L1 protein (19-238), recombinant human PD-1 protein (25-167)) (Homo sapiens, UniProt Q9NZQ7)
T1 construct: Recombinant human PD-L1 protein (19-238) with a His-tag at the C-terminus; purchased AcroBiosystems PD1-H5229 (PD-L1-His); PD1-H5257 (PD-1-Fc)
Experiment: PD-1/PD-L1 Homogeneous Time-Resolved Fluorescence (HTRF) Binding Assay
Conditions: 25° C., PBS buffer (pH 7.4), 40 minutes preincubation with inhibitors
How it was run: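 Fc-tagged human PD-1 (25-167) and His-tagged PD-L1 (19-238), listed as […] and 10 nM final, preincubated 40 min with inhibitors in PBS pH 7.4, 0.05% Tween-20, 0.1% BSA, 1% DMSO, 25 °C. Eu anti-IgG/APC anti-His added, 60 min, 665/620 nm HTRF ratio; IC50 fitted from percent control activity.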

T1 sequence (Q9NZQ7 19-238): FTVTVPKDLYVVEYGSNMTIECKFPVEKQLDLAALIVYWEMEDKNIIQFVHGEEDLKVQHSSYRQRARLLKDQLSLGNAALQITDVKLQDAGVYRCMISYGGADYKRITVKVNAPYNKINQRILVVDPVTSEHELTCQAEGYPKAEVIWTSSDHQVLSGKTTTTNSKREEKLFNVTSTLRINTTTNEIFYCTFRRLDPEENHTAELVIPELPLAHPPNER

IC50, ≤ 10 nM:
Cc1c(Nc2nccc3cc(CN4CC[C@@](C)(O)C4)cnc23)cccc1-c1cccc(NC(=O)c2nc3c(n2C)CCN(C2CCC(C(=O)O)CC2)C3)c1Cl (stereo partly drawn) [Example 57, (R)-4-(2-(2-chloro-3′-(3-((3-hydroxy-3-methylpyrrolidin-1-yl)methyl)-1,7-naphthyridin-8-ylamino)-2′-methylbiphenyl-3-ylcarbamoyl)-1-methyl-6,7-dihydro-1H-imidazo[4,5-c]pyridin-5(4H)-yl)cyclohexanecarboxylic acid]
Cc1c(Nc2nccc3cc(CN4CC[C@](C)(O)C4)cnc23)cccc1-c1cccc(NC(=O)c2nc3c(n2C)CCN(C2CCC(C(=O)O)CC2)C3)c1Cl (stereo partly drawn) [Example 58, (S)-4-(2-(2-chloro-3′-(3-((3-hydroxy-3-methylpyrrolidin-1-yl)methyl)-1,7-naphthyridin-8-ylamino)-2′-methylbiphenyl-3-ylcarbamoyl)-1-methyl-6,7-dihydro-1H-imidazo[4,5-c]pyridin-5(4H)-yl)cyclohexanecarboxylic acid]
Cc1c(Nc2nccc3cc(CN[C@H](C)CO)cnc23)cccc1-c1cccc(NC(=O)c2nc3c(n2C)CCN(CC[C@H]2CC[C@H](C(=O)O)CC2)C3)c1Cl [Example 59, trans 4-(2-(2-(2-chloro-3′-(3-(((R)-1-hydroxypropan-2-ylamino)methyl)-1,7-naphthyridin-8-ylamino)-2′-methylbiphenyl-3-ylcarbamoyl)-1-methyl-6,7-dihydro-1H-imidazo[4,5-c]pyridin-5(4H)-yl)ethyl)cyclohexanecarboxylic acid]
Cc1c(Nc2nccc3cc(CN[C@@H](C)CO)cnc23)cccc1-c1cccc(NC(=O)c2nc3c(n2C)CCN(CC[C@H]2CC[C@H](C(=O)O)CC2)C3)c1Cl [Example 60, trans 4-(2-(2-(2-chloro-3′-(3-(((S)-1-hydroxypropan-2-ylamino)methyl)-1,7-naphthyridin-8-ylamino)-2′-methylbiphenyl-3-ylcarbamoyl)-1-methyl-6,7-dihydro-1H-imidazo[4,5-c]pyridin-5(4H)-yl)ethyl)cyclohexanecarboxylic acid]
Cc1c(Nc2nccc3cc(CN4CC[C@@](C)(O)C4)cnc23)cccc1-c1cccc(NC(=O)c2nc3c(n2C)CCN(CC[C@H]2CC[C@H](C(=O)O)CC2)C3)c1Cl [Example 61, trans-4-(2-(2-(2-chloro-3′-(3-(((R)-3-hydroxy-3-methylpyrrolidin-1-yl)methyl)-1,7-naphthyridin-8-ylamino)-2′-methylbiphenyl-3-ylcarbamoyl)-1-methyl-6,7-dihydro-1H-imidazo[4,5-c]pyridin-5(4H)-yl)ethyl)cyclohexanecarboxylic acid]
Cc1c(NC(=O)c2nc3c(n2C)CCN(CC[C@H]2CC[C@H](C(=O)O)CC2)C3)cccc1-c1cccc(Nc2nccc3cc(CN4CC[C@@H](O)C4)cnc23)c1C [Example 63, trans-4-(2-(2-(3′-(3-(((R)-3-hydroxypyrrolidin-1-yl)methyl)-1,7-naphthyridin-8-ylamino)-2,2′-dimethylbiphenyl-3-ylcarbamoyl)-1-methyl-6,7-dihydro-1H-imidazo[4,5-c]pyridin-5(4H)-yl)ethyl)cyclohexanecarboxylic acid]
Cn1c(C(=O)Nc2cccc(-c3cccc(Nc4nccc5cc(CN6CC[C@@H](O)C6)cnc45)c3Cl)c2Cl)nc2c1CCN(CC[C@H]1CC[C@H](C(=O)O)CC1)C2 [Example 65, Trans-4-(2-(2-(2,2′-dichloro-3′-(3-(((R)-3-hydroxypyrrolidin-1-yl)methyl)-1,7-naphthyridin-8-ylamino)biphenyl-3-ylcarbamoyl)-1-methyl-6,7-dihydro-1H-imidazo[4,5-c]pyridin-5(4H)-yl)ethyl)cyclohexanecarboxylic acid]
Cc1c(NC(=O)c2nc3c(n2C)CCN(CC[C@H]2CC[C@H](C(=O)O)CC2)C3)cccc1-c1cccc(Nc2nccc3cc(CN4CC[C@@H](O)C4)cnc23)c1Cl [Example 66, trans 4-(2-(2-(2′-chloro-3′-(3-(((R)-3-hydroxypyrrolidin-1-yl)methyl)-1,7-naphthyridin-8-ylamino)-2-methylbiphenyl-3-ylcarbamoyl)-1-methyl-6,7-dihydro-1H-imidazo[4,5-c]pyridin-5(4H)-yl)ethyl)cyclohexanecarboxylic acid]
Cc1c(Nc2ncnc3cc(CN4CC[C@@](C)(C(=O)O)C4)cnc23)cccc1-c1cccc(NC(=O)c2nc3c(n2C)CCN(C)C3)c1Cl [Example 67, (R)-1-((4-(2′-chloro-3′-(1,5-dimethyl-4,5,6,7-tetrahydro-1H-imidazo[4,5-c]pyridine-2-carboxamido)-2-methylbiphenyl-3-ylamino)pyrido[3,2-d]pyrimidin-7-yl)methyl)-3-methylpyrrolidine-3-carboxylic acid]
Cc1c(Nc2ncnc3cc(CN4CC[C@@H](O)C4)cnc23)cccc1-c1cccc(NC(=O)c2nc3c(n2C)CCN(C[C@H]2CC[C@H](C(=O)O)CC2)C3)c1Cl [Example 69, trans 4-((2-(2-chloro-3′-(7-(((R)-3-hydroxypyrrolidin-1-yl)methyl)pyrido[3,2-d]pyrimidin-4-ylamino)-2′-methylbiphenyl-3-ylcarbamoyl)-1-methyl-6,7-dihydro-1H-imidazo[4,5-c]pyridin-5(4H)-yl)methyl)cyclohexanecarboxylic acid]
Cc1c(Nc2nccc3cc(CN4CC[C@@H](O)C4)cnc23)cccc1-c1cccc(Nc2nccc3nc(CN4CC[C@@H](C(=O)O)C4)cnc23)c1C [Example 70, (R)-1-((5-(3′-(3-(((R)-3-hydroxypyrrolidin-1-yl)methyl)-1,7-naphthyridin-8-ylamino)-2,2′-dimethylbiphenyl-3-ylamino)pyrido[4,3-b]pyrazin-2-yl)methyl)pyrrolidine-3-carboxylic acid]
Cc1c(Nc2nccc3cc(CN4CC[C@@H](C(=O)O)C4)cnc23)cccc1-c1cccc(Nc2nccc3cc(C4CCCN4)cnc23)c1C (stereo partly drawn) [Example 71, (3R)-1-((8-(2,2′-dimethyl-3′-(3-(pyrrolidin-2-yl)-1,7-naphthyridin-8-ylamino)biphenyl-3-ylamino)-1,7-naphthyridin-3-yl)methyl)pyrrolidine-3-carboxylic acid]
OCCNCc1cnc2c(Nc3cccc(-c4cccc(Nc5nccc6cc(CN7CC[C@@H](O)C7)cnc56)c4Cl)c3Cl)nccn12 [Example 72, (R)-1-((8-(2,2′-dichloro-3′-(3-((2-hydroxyethylamino)methyl)imidazo[1,2-a]pyrazin-8-ylamino)biphenyl-3-ylamino)-1,7-naphthyridin-3-yl)methyl)pyrrolidin-3-ol]
Cc1c(Nc2nccc3cc(CN4CCCC4)cnc23)cccc1-c1cccc(Nc2nccc3cc(CN4CC[C@@H](O)C4)cnc23)c1C [Example 73, (R)-1-((8-((2,2′-dimethyl-3′-((3-(pyrrolidin-1-ylmethyl)-1,7-naphthyridin-8-yl)amino)-[1,1′-biphenyl]-3-yl)amino)-1,7-naphthyridin-3-yl)methyl)pyrrolidin-3-ol]
Cc1c(Nc2nccc3cc(CN4CC[C@H](O)C4)cnc23)cccc1-c1cccc(Nc2nccc3cc(CN4CC[C@@H](O)C4)cnc23)c1Cl [Example 74, (S)-1-((8-((2′-chloro-3′-((3-(((R)-3-hydroxypyrrolidin-1-yl)methyl)-1,7-naphthyridin-8-yl)amino)-2-methyl-[1,1′-biphenyl]-3-yl)amino)-1,7-naphthyridin-3-yl)methyl)pyrrolidin-3-ol]
Cc1c(Nc2nccc3cc(CN4CC(C(=O)O)C4)cnc23)cccc1-c1cccc(Nc2nccc3cc(CN4CC[C@@H](O)C4)cnc23)c1Cl [Example 75, (R)-1-((8-((2′-chloro-3′-((3-((3-hydroxypyrrolidin-1-yl)methyl)-1,7-naphthyridin-8-yl)amino)-2-methyl-[1,1′-biphenyl]-3-yl)amino)-1,7-naphthyridin-3-yl)methyl)azetidine-3-carboxylic acid]
C[C@@]1(O)CCN(Cc2cnc3c(Nc4cccc(-c5cccc(Nc6nccc7cc(CN8CC[C@@H](O)C8)cnc67)c5Cl)c4Cl)nccc3c2)C1 [Example 76, (R)-1-((8-((2,2′-dichloro-3′-((3-(((R)-3-hydroxypyrrolidin-1-yl)methyl)-1,7-naphthyridin-8-yl)amino)-[1,1′-biphenyl]-3-yl)amino)-1,7-naphthyridin-3-yl)methyl)-3-methylpyrrolidin-3-ol]
OCCNCc1cnc2c(Nc3cccc(-c4cccc(Nc5nccc6cc(CN7CC[C@@H](O)C7)cnc56)c4Cl)c3Cl)nccc2c1 [Example 77, (R)-1-((8-((2,2′-dichloro-3′-((3-(((2-hydroxyethyl)amino)methyl)-1,7-naphthyridin-8-yl)amino)-[1,1′-biphenyl]-3-yl)amino)-1,7-naphthyridin-3-yl)methyl)pyrrolidin-3-ol]
O=C(O)[C@@H]1CCN(Cc2cnc3c(Nc4cccc(-c5cccc(Nc6nccc7cc(CN8CC[C@@H](O)C8)cnc67)c5Cl)c4Cl)nccc3c2)C1 [Example 78, (R)-1-((8-((2,2′-dichloro-3′-((3-(((R)-3-hydroxypyrrolidin-1-yl)methyl)-1,7-naphthyridin-8-yl)amino)-[1,1′-biphenyl]-3-yl)amino)-1,7-naphthyridin-3-yl)methyl)pyrrolidine-3-carboxylic acid]
Cc1c(Nc2nccc3cc(CN4CC[C@@H](O)C4)cnc23)cccc1-c1cccc(Nc2nccc3cc(CN4CC[C@@H](C(=O)O)C4)cnc23)c1Cl [Example 79, (R)-1-((8-((2-chloro-3′-((3-(((R)-3-hydroxypyrrolidin-1-yl)methyl)-1,7-naphthyridin-8-yl)amino)-2′-methyl-[1,1′-biphenyl]-3-yl)amino)-1,7-naphthyridin-3-yl)methyl)pyrrolidine-3-carboxylic acid]
